Test results taken from ChEMBL document CHEMBL1201862, “PubChem BioAssay data set” (2004).
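How tested: cells in 96-well plates exposed to compound for 48 hours at five concentrations. GI50 is the concentration that inhibits growth by half.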 Calls of active or inactive are those of the source. Cut-off read from the data, not from the text of the source: active = GI50 up to about 1.1 µM and inactive = higher.

How the values were obtained:
Assay in all cases: NCI tumour cell line growth inhibition, 48 h
SK-MEL-5 = tested on: SK-MEL-5
UACC-257 = tested on: UACC-257
UACC-62 = tested on: UACC-62
UO-31 = tested on: UO-31
SW-620 = tested on: SW-620
HOP-92 = tested on: HOP-92
SR = tested on: SR
NCI-H522 = tested on: NCI-H522
SF-539 = tested on: SF-539
OVCAR-5 = tested on: OVCAR-5
SF-268 = tested on: SF-268
HOP-62 = tested on: HOP-62
A549 = tested on: A549
U-251 = tested on: U-251
OVCAR-8 = tested on: OVCAR-8
KM12 = tested on: KM12
SNB-19 = tested on: SNB-19
RPMI-8226 = tested on: RPMI-8226
K562 = tested on: K562
A498 = tested on: A498

SMILES | GI50 (SK-MEL-5) | GI50 (UACC-257) | GI50 (UACC-62) | GI50 (UO-31) | GI50 (SW-620) | GI50 (HOP-92) | GI50 (SR) | GI50 (NCI-H522) | GI50 (SF-539) | GI50 (OVCAR-5) | GI50 (SF-268) | GI50 (HOP-62) | GI50 (A549) | GI50 (U-251) | GI50 (OVCAR-8) | GI50 (KM12) | GI50 (SNB-19) | GI50 (RPMI-8226) | GI50 (K562) | GI50 (A498)
O=C1c2ccccc2C(=O)c2[nH]c(=O)c(/C=N/Nc3ccc([N+](=O)[O-])cc3)nc21 | 1.62 µM (inactive) | 2.15 µM (inactive) | 2.09 µM (inactive) | 6.58 µM (inactive) | 12.1 µM (inactive) | 15.2 µM (inactive) | 17.5 µM (inactive) | 3.23 µM (inactive) | 5.93 µM (inactive) | 31.6 µM (inactive) | 8.59 µM (inactive) | 2.28 µM (inactive) | 3.52 µM (inactive) | 7.24 µM (inactive) | 15.8 µM (inactive) | 5.73 µM (inactive) | 15.9 µM (inactive) | > 37 µM (inactive) | > 43.6 µM (inactive) | 4.67 µM (inactive)
CC1(C)OC2OC(COC(=O)C(c3ccccc3)c3ccccc3)C3OC(C)(C)OC3C2O1 (stereo not drawn) | 7.11 µM (inactive) | > 10 µM (inactive) | 9.27 µM (inactive) | 35.5 µM (inactive) | 6.87 µM (inactive) | 61.8 µM (inactive) | > 10 µM (inactive) | 21.6 µM (inactive) | 95.9 µM (inactive) | > 10 µM (inactive) | 16.9 µM (inactive) | > 10 µM (inactive) | 26.1 µM (inactive) | > 10 µM (inactive) | 53 µM (inactive) | 5.87 µM (inactive) | 66.7 µM (inactive) | 4.5 µM (inactive) | 4.29 µM (inactive) | > 10 µM (inactive)
Cn1c(=O)c2[nH]c(/N=N/N3CCN(CCO)CC3)nc2n(C)c1=O | > 100 µM (inactive) | > 100 µM (inactive) | > 100 µM (inactive) | > 100 µM (inactive) | > 100 µM (inactive) | > 100 µM (inactive) | > 100 µM (inactive) | > 100 µM (inactive) | > 100 µM (inactive) | > 100 µM (inactive) | > 100 µM (inactive) | > 100 µM (inactive) | > 100 µM (inactive) | > 100 µM (inactive) | > 100 µM (inactive) | > 100 µM (inactive) | > 100 µM (inactive) | > 100 µM (inactive) | > 100 µM (inactive) | > 100 µM (inactive)
O=Cc1cc(O)ccc1Br | 17.3 µM (inactive) | 41.5 µM (inactive) | 6.9 µM (inactive) | 19.5 µM (inactive) | 4.78 µM (inactive) | 19 µM (inactive) | 2.63 µM (inactive) | 38.4 µM (inactive) | 4.3 µM (inactive) | 32.1 µM (inactive) | 9.93 µM (inactive) | 9.71 µM (inactive) | > 100 µM (inactive) | 3.74 µM (inactive) | 5.05 µM (inactive) | 23.5 µM (inactive) | 12.5 µM (inactive) | 2.81 µM (inactive) | 2.86 µM (inactive) | > 100 µM (inactive)
Nn1c(S)nnc1COc1cccc(OCc2nnc(S)n2N)c1 |  | > 100 µM (inactive) | 83.2 µM (inactive) | > 100 µM (inactive) | 40 µM (inactive) | > 100 µM (inactive) | 2.45 µM (inactive) | 65.3 µM (inactive) | 80 µM (inactive) | > 100 µM (inactive) | > 100 µM (inactive) | > 100 µM (inactive) | > 100 µM (inactive) | > 100 µM (inactive) | > 100 µM (inactive) | > 100 µM (inactive) | > 100 µM (inactive) | 53.6 µM (inactive) | 4.9 µM (inactive) | > 100 µM (inactive)
Clc1ccc(CCn2ccc3ccccc32)c(Cl)c1 | > 100 µM (inactive) | > 100 µM (inactive) | > 100 µM (inactive) | > 100 µM (inactive) | > 100 µM (inactive) | > 100 µM (inactive) | > 100 µM (inactive) | > 100 µM (inactive) | > 100 µM (inactive) | > 100 µM (inactive) | > 100 µM (inactive) | > 100 µM (inactive) | > 100 µM (inactive) | > 100 µM (inactive) | > 100 µM (inactive) | > 100 µM (inactive) | > 100 µM (inactive) | > 100 µM (inactive) | > 100 µM (inactive) | > 100 µM (inactive)
Cc1c2cc[n+](C)cc2c(C)c2c1[nH]c1ccccc12 | 1.28 µM (inactive) | 6.41 µM (inactive) | 5.18 µM (inactive) | 8.65 µM (inactive) | 0.973 µM (active) | 1.56 µM (inactive) | 0.497 µM (active) | 0.774 µM (active) | 0.505 µM (active) | 10.2 µM (inactive) | 0.467 µM (active) | 0.45 µM (active) | 0.249 µM (active) | 0.421 µM (active) | 0.368 µM (active) | 0.429 µM (active) | 0.301 µM (active) | 8.02 µM (inactive) | 3.05 µM (inactive) | 2.39 µM (inactive)
COc1ccc(CC2COc3cc(O)cc(O)c3C2=O)cc1O (stereo not drawn) | 5.13 µM (inactive) | > 100 µM (inactive) | 8.57 µM (inactive) | 17 µM (inactive) | 3.56 µM (inactive) | 22.3 µM (inactive) | 1.03 µM (active) | 4.7 µM (inactive) | 2.97 µM (inactive) | 12.3 µM (inactive) | 14.7 µM (inactive) | 5.13 µM (inactive) | 11.9 µM (inactive) | 4.89 µM (inactive) | 11.9 µM (inactive) | 2.81 µM (inactive) | 4.83 µM (inactive) | 3.01 µM (inactive) | 3.13 µM (inactive) | 99.3 µM (inactive)
COc1ccc2nc3cc(Cl)ccc3c(NCCCCCC(=O)NC(COc3ccc4ccc5cccnc5c4n3)COc3ccc4ccc5cccnc5c4n3)c2c1 | 16.8 µM (inactive) | 21.7 µM (inactive) | 21.7 µM (inactive) | 2.79 µM (inactive) | 12 µM (inactive) | 24.4 µM (inactive) | 3.14 µM (inactive) | 24.1 µM (inactive) | 16.9 µM (inactive) | 24.4 µM (inactive) | 17.9 µM (inactive) | > 100 µM (inactive) | 15.5 µM (inactive) | 13.8 µM (inactive) | 41.2 µM (inactive) | 27.9 µM (inactive) | 45.5 µM (inactive) | 5.58 µM (inactive) | 13.5 µM (inactive) | 17.3 µM (inactive)
O=C(CCCN1CCC(C(O)c2ccc(F)cc2)CC1)c1ccc(F)cc1 (stereo not drawn) | 46.7 µM (inactive) | 60.7 µM (inactive) | 57 µM (inactive) | 23.1 µM (inactive) | 61.8 µM (inactive) | 20.6 µM (inactive) | 69.8 µM (inactive) | 66.8 µM (inactive) | 59.4 µM (inactive) | 58.2 µM (inactive) | 59.6 µM (inactive) | 62.8 µM (inactive) | 64 µM (inactive) | 55.5 µM (inactive) | 64.7 µM (inactive) | 56.6 µM (inactive) | 60.7 µM (inactive) | 66.5 µM (inactive) | 39.7 µM (inactive) | 49 µM (inactive)
COc1ccc(Nc2nc(N)c(C(=O)c3c[nH]c4ccccc34)s2)cc1 | 1.3 µM (inactive) | 7.85 µM (inactive) | 5.79 µM (inactive) | 3.52 µM (inactive) | 1.65 µM (inactive) | 5.36 µM (inactive) | 0.0655 µM (active) | 0.0302 µM (active) | 2.42 µM (inactive) | 3.13 µM (inactive) | 6.84 µM (inactive) | 8.02 µM (inactive) | 1.41 µM (inactive) | 1.58 µM (inactive) | 2.36 µM (inactive) | 0.689 µM (active) | 2.82 µM (inactive) | 0.998 µM (active) | 0.397 µM (active) | 2.05 µM (inactive)
COc1ccc2c(Cc3c4ccccc4cc4ccccc34)cncc2c1O | 0.658 µM (active) | 2.32 µM (inactive) | 2.9 µM (inactive) | 4.4 µM (inactive) | 0.857 µM (active) | 1.81 µM (inactive) | 0.21 µM (active) | 0.698 µM (active) | 0.245 µM (active) | 13.5 µM (inactive) | 3.79 µM (inactive) | 4.11 µM (inactive) | 3.44 µM (inactive) | 1.45 µM (inactive) | 1.1 µM (active) | 1.93 µM (inactive) | 2.08 µM (inactive) | 1.85 µM (inactive) | 0.655 µM (active) | 3.99 µM (inactive)
COc1cccc(/C=C2/S/C(=N/Nc3nc(C)c(C(C)=O)s3)NC2=O)c1O | 20.9 µM (inactive) | 25.4 µM (inactive) | 20.1 µM (inactive) | 21.5 µM (inactive) | 29.2 µM (inactive) | 28.9 µM (inactive) | 27.7 µM (inactive) | 17.3 µM (inactive) | 34.8 µM (inactive) | 26.4 µM (inactive) | 40.6 µM (inactive) | 51.6 µM (inactive) | 37.9 µM (inactive) | 18.5 µM (inactive) | 34.3 µM (inactive) | 36.2 µM (inactive) | 38 µM (inactive) | 27 µM (inactive) | 31.1 µM (inactive) | 33.9 µM (inactive)
CSC1(C)C(=O)Nc2c(OCc3ccccc3)cc([N+](=O)[O-])cc21 (stereo not drawn) | 15.3 µM (inactive) | > 100 µM (inactive) | 19.6 µM (inactive) |  | 71.6 µM (inactive) | 20 µM (inactive) | > 100 µM (inactive) | 94.8 µM (inactive) | 66.1 µM (inactive) | 63 µM (inactive) | 31.6 µM (inactive) | > 100 µM (inactive) | 21.5 µM (inactive) | 19.9 µM (inactive) | 21.5 µM (inactive) | 96.8 µM (inactive) | > 100 µM (inactive) | 32.2 µM (inactive) | 91 µM (inactive) | 34.2 µM (inactive)
